Data set [1] concerns the target T1, Estrogen receptor (Homo sapiens) (UniProt P03372).
T1 sequence (whole entry): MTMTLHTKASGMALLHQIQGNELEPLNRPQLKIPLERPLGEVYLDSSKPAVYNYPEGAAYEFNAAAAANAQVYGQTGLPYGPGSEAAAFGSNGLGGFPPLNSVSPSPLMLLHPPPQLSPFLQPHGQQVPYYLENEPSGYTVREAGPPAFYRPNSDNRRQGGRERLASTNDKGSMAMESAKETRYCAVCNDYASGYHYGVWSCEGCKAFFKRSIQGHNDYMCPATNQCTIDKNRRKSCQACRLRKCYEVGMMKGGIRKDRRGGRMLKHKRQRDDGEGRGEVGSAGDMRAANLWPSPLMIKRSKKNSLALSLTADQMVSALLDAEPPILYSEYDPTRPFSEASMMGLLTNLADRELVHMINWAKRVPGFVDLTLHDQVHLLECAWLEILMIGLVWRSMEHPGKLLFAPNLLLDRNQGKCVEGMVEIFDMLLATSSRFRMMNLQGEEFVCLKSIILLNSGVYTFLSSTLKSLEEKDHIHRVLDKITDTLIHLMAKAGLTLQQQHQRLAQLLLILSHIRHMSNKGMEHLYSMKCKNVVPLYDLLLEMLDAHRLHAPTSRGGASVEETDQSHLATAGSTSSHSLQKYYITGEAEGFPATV
The data set can be described thus: Activity against human ERalpha expressed in recombinant yeast cells upto 500 ug/mL. Type of data set: cell-based.

Data set [2] can be described thus: (§1) Inhibition of activation of human complement.
In data set [3] the test system is SK-OV-3. The data set can be described thus: Cytotoxicity against SKOV3 cells upto 25 ug/mL by neutral red assay. Type of data set: cell-based. Conditions: human.
The subject of data set [4] is LLC-PK1. The data set can be described thus: Cytotoxicity against LLC-PK1 cells upto 25 ug/mL by neutral red assay. Type of data set: cell-based, Sus scrofa. The settings on record: pig.
Data set [5] relates to SK-MEL. The data set can be described thus: Cytotoxicity against SK-MEL cells upto 25 ug/mL by neutral red assay. Type of data set: cell-based. Conditions: human.
Data set [6] has as its system KB. The data set can be described thus: Cytotoxicity against KB cells upto 25 ug/mL by neutral red assay. The settings on record: human. It is filed as cell-based.
Data set [7] concerns BT-549. The experiment in a line: Cytotoxicity against BT549 cells upto 25 ug/mL by neutral red assay. Type of data set: cell-based. Conditions: human.
The test system of data set [8] is HL-60. The experiment in a line: Antioxidant activity in HL60 cells by DCFH-DA method upto 20ug/mL. Conditions: Homo sapiens. It is filed as functional, cell-based.
Data set [9] concerns Vero. The data set can be described thus: Cytotoxicity against Vero cells upto 25 ug/mL by neutral red assay. It is filed as cell-based. Conditions: chlorocebus sabaeus.
For data set [10], the species on record is Homo sapiens. The data set is described as §1.

SMILES strings stand for the structures. The source made the active and inactive calls. The rule behind the calls is not given here.

As to `CC(=O)O[C@@H]1C[C@@]23C[C@@]24CC[C@H](O)C(C)(C)[C@@H]4CC[C@H]3[C@]2(C)[C@@H](O)[C@]34O[C@H](C[C@@H](C)[C@@H]3[C@@]12C)[C@@H](C(C)(C)O)O4`, the outcome in data set [1] and in data set [8] was inactive. The compound also registered an IC50 in [2] of 187 µM. Also, the Activity entry in data set [3], in data set [4], in data set [5], in data set [6], in data set [7] and in [9] was “Not Active” throughout.

Regarding `CC(=O)O[C@@H]1C[C@@]23C[C@@]24CC[C@H](O[C@@H]2OC[C@@H](O)[C@H](O)[C@H]2O)C(C)(C)[C@@H]4CC[C@H]3[C@]2(C)[C@@H](O)[C@]34O[C@H](C[C@@H](C)[C@@H]3[C@@]12C)[C@@H](C(C)(C)O)O4`, the outcome in [1], in data set [10] and in data set [8] was inactive. In addition, the Activity result in [3], in [4], in [5], in data set [6], in data set [7] and in [9] was “Not Active” throughout.

As for `CC1(C)CC[C@]2(C(=O)O)CC[C@]3(C)C(=CC[C@@H]4[C@@]5(C)CC[C@H](O)C(C)(C)[C@@H]5CC[C@]43C)[C@@H]2C1` [OLEANOLIC_ACID], the IC50 in [2] turned out to be 78 µM.

Consider `CC(=O)O[C@@H]1C[C@@]23C[C@@]24CC[C@H](O[C@@H]2OC[C@@H](O)[C@H](O)[C@H]2O)C(C)(C)[C@@H]4CCC3[C@]2(C)C[C@@H]3O[C@@]4(O[C@H]4C(C)(C)O)[C@H](O)[C@@H](C)[C@@H]3[C@@]12C` (some centres undefined), for which the result in data set [1], in data set [10] and in data set [8] was inactive. Further, the Activity result in data set [3], in data set [4], in data set [5], in data set [6], in data set [7] and in data set [9] was “Not Active” throughout.

Regarding `CC(=O)O[C@H](C[C@@H](C)[C@H]1C(=O)[C@H](O)[C@@]2(C)[C@@H]3CC[C@H]4C(C)(C)[C@@H](O[C@@H]5OC[C@@H](O)[C@H](O)[C@H]5O)CC[C@@]45C[C@@]35CC[C@]12C)[C@H]1OC1(C)C`, the outcome in [1], in [10] and in data set [8] was inactive. The Activity entry in data set [3], in [4], in data set [5], in data set [6], in data set [7] and in [9] was “Not Active” throughout.

`C[C@H]1[C@H](C)CC[C@]2(C(=O)O)CC[C@]3(C)C(=CC[C@@H]4[C@@]5(C)CC[C@H](O)C(C)(C)[C@@H]5CC[C@]43C)[C@H]12` [URSOLIC ACID] registered a half-inhibitory concentration (IC50) in data set [2] of 55 µM.

As to `C[C@@H]1C[C@H]2O[C@@]3(O[C@@H]2C(C)(C)O)[C@H](O)[C@@]2(C)[C@@H]4CC[C@H]5C(C)(C)[C@@H](O[C@@H]6OC[C@@H](O)[C@H](O)[C@H]6O)CC[C@@]56C[C@@]46CC[C@]2(C)[C@@H]13`, the result in [1], in data set [10] and in [8] was inactive. The Activity result in [3], in data set [4], in data set [5], in data set [6], in data set [7] and in [9] was “Not Active” throughout.

Turning to `C[C@H]1[C@H]2[C@H](C[C@@]3(C)C4=CC[C@H]5C(C)(C)[C@@H](O[C@@H]6OC[C@@H](O)[C@H](O)[C@H]6O)CC[C@@]56C[C@@]46CC[C@]23C)O[C@@]2(O[C@H]2C(C)(C)O)[C@@H]1O`, the outcome in data set [1], in data set [10] and in data set [8] was inactive. Further, the Activity entry in [3], in data set [4], in data set [5], in data set [6], in data set [7] and in data set [9] was “Not Active” in each case.

In the case of `CC(=O)O[C@@H]1C[C@@]23C[C@@]24CC[C@H](O[C@@H]2OC[C@@H](O)[C@H](O)[C@H]2O)C(C)(C)[C@@H]4CC[C@H]3[C@]2(C)C[C@@H]3O[C@@]4(C[C@@H](C)[C@@H]3[C@@]12C)OC[C@]1(C)O[C@H]41`, the outcome in [1], in data set [10] and in data set [8] was inactive. Moreover, the Activity entry in data set [3], in data set [4], in [5], in data set [6], in data set [7] and in data set [9] was “Not Active” throughout.

With `CC(=O)O[C@@H]1C[C@@]23C[C@@]24CC[C@H](O[C@@H]2OC[C@@H](O)[C@H](O)[C@H]2O)C(C)(C)[C@@H]4CC=C3[C@]2(C)C[C@@H]3O[C@@]4(O[C@H]4C(C)(C)O)[C@H](O)[C@@H](C)[C@@H]3[C@@]12C`, the result in [1], in [10] and in data set [8] was inactive. Moreover, the Activity entry in [3], in data set [4], in [5], in [6], in data set [7] and in data set [9] was “Not Active” each time.

Values taken from ChEMBL document CHEMBL1139210, “9,19-cyclolanostane derivatives from the roots of Actaea pachypoda” (J Nat Prod, 2007).
